The target in this assay is T1, neutrophil elastase (Homo sapiens, UniProt P08246).
T1 sequence (P08246 30-247 limits assumed): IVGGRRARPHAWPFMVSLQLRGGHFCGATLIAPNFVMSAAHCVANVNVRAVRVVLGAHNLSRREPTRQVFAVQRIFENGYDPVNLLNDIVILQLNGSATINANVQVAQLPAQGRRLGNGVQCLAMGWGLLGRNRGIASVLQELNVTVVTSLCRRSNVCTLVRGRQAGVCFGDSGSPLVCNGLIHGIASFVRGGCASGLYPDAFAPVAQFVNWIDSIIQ
Description: Human Neutrophil Elastase Assay. On the set-up: purchased Calbiochem 324681. As to conditions: substrate MeOSuc-Ala-Ala-Pro-Val-AMC, pH 7.5, room temperature. The format is biochemical. A digest of the protocol: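 Readout: AMC fluorescence (ex 380, em 460 nm) after 60 min room-temperature reaction with 250 nM MeOSuc-AAPV-AMC, following 15 min compound–enzyme preincubation. Buffer: Tris/NaCl pH 7.5, 0.01% BSA.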

IC50 data for 37 compounds are collected here from patent US9115093B2, “Substituted bicyclic dihydropyrimidinones and their use as inhibitors of neutrophil elastase activity” (Boehringer Ingelheim International GmbH, priority 2013, dated 2015).

Bounds are passed on as bounds.

For orientation: IC50 means the concentration that inhibits the measured activity by half. Lower therefore signals higher potency.

For `COC(=O)c1cc(S(=O)(=O)N2C(=O)N(c3cccc(C(F)(F)F)c3)C3=C(C(=O)CCC3)C2c2ccc(C#N)cc2)cs1` (stereo not shown) [Example 44, Methyl 4-(4-(4-Cyanophenylcyanophenyl)-2,5-dioxo-1-(3-(trifluoromethyl)phenyl)-1,2,5,6,7,8-hexahydroquinazolin-3(4H)-ylsulfonyl)thiophene-2-carboxylate], the IC50 turned out to be 22 nM. As for `CCS(=O)(=O)N1C(=O)N(c2cccc(C(F)(F)F)c2)C2=C(C(=O)CCC2)C1c1ccc(C#N)cc1` (stereo not shown) [Example 44.1], the IC50 was found to be 5.1 nM.

The compound `CCCS(=O)(=O)N1C(=O)N(c2cccc(C(F)(F)F)c2)C2=C(C(=O)CCC2)C1c1ccc(C#N)cc1` (stereo not shown) [Example 44.2] came in with an IC50 of 3 nM. As for `CC(C)CS(=O)(=O)N1C(=O)N(c2cccc(C(F)(F)F)c2)C2=C(C(=O)CCC2)C1c1ccc(C#N)cc1` (stereo not shown) [Example 44.3], inhibition was half-maximal at 5.1 nM (IC50). Compound `N#Cc1ccc(C2C3=C(CCCC3=O)N(c3cccc(C(F)(F)F)c3)C(=O)N2S(=O)(=O)c2ccco2)cc1` (stereo not shown) [Example 44.4] gave a concentration for half-maximal inhibition (IC50) of 15.6 nM.

`N#Cc1ccc(C2C3=C(CCCC3=O)N(c3cccc(C(F)(F)F)c3)C(=O)N2S(=O)(=O)c2ccccc2)cc1` (stereo not shown) [Example 44.5] registered an IC50 of 34.9 nM. `N#Cc1ccc(C2C3=C(CCCC3=O)N(c3cccc(C(F)(F)F)c3)C(=O)N2S(=O)(=O)c2cccnc2)cc1` (stereo not shown) [Example 44.6] yielded an IC50 of 22.3 nM. As to `Cn1ccc(S(=O)(=O)N2C(=O)N(c3cccc(C(F)(F)F)c3)C3=C(C(=O)CCC3)C2c2ccc(C#N)cc2)n1` (stereo not shown) [Example 44.7], inhibition was half-maximal at 15.9 nM (IC50). Take `N#Cc1ccc(C2C3=C(CCCC3=O)N(c3cccc(C(F)(F)F)c3)C(=O)N2S(=O)(=O)Cc2ccccc2)cc1` (stereo not shown) [Example 44.8]: inhibition was half-maximal at 9 nM (IC50). `CS(=O)(=O)CS(=O)(=O)N1C(=O)N(c2cccc(C(F)(F)F)c2)C2=C(C(=O)CCC2)C1c1ccc(C#N)cc1` (stereo not shown) [Example 44.9] displayed an IC50 of 3.4 nM. As to `COC(=O)CCCS(=O)(=O)N1C(=O)N(c2cccc(C(F)(F)F)c2)C2=C(C(=O)CCC2)C1c1ccc(C#N)cc1` (stereo not shown) [Example 44.10, methyl 4-(4-(4-cyanophenyl)-2,5-dioxo-1-(3-(trifluoromethyl)phenyl)-1,2,5,6,7,8-hexahydroquinazolin-3(4H)-ylsulfonyl)butanoate], inhibition was half-maximal at 5.2 nM (IC50).

The compound `N#Cc1ccc(C2C3=C(CCCC3=O)N(c3cccc(C(F)(F)F)c3)C(=O)N2S(=O)(=O)c2ccccc2C#N)cc1` (stereo not shown) [Example 44.11] had an IC50 of 11.4 nM. As for `N#Cc1ccc(C2C3=C(CCCC3=O)N(c3cccc(C(F)(F)F)c3)C(=O)N2S(=O)(=O)C=Cc2ccccc2)cc1` (stereo not shown) [Example 44.12], 106 nM corresponded to half-maximal inhibition (IC50). Consider `COC(=O)c1cc(S(=O)(=O)N2C(=O)N(c3cccc(C(F)(F)F)c3)C3=C(C(=O)CCC3)C2c2ccc(C#N)cc2)oc1C` (stereo not shown) [Example 44.13], for which the IC50 came out at 27.3 nM. On to `N#Cc1ccc(C2C3=C(CCCC3=O)N(c3cccc(C(F)(F)F)c3)C(=O)N2S(=O)(=O)CCCC(=O)O)cc1` (stereo not shown) [Example 45, 4-(4-(4-Cyanophenyl)-2,5-dioxo-1-(3-(trifluoromethyl)phenyl)-1,2,5,6,7,8-hexahydroquinazolin-3(4H)-ylsulfonyl)butanoic acid], for which the IC50 came to 3.4 nM. For `N#Cc1ccc(C2C3=C(CCCC3=O)N(c3cccc(C(F)(F)F)c3)C(=O)N2S(=O)(=O)c2csc(C(=O)O)c2)cc1` (stereo not shown) [Example 46, 4-(4-(4-Cyanophenyl)-2,5-dioxo-1-(3-(trifluoromethyl)phenyl)-1,2,5,6,7,8-hexahydroquinazolin-3(4H)-ylsulfonyl)thiophene-2-carboxylic acid], the IC50 is 21.5 nM. In the case of `CNC(=O)N1C(=O)N(c2cccc(C(F)(F)F)c2)C2=C(C(=O)CCC2)C1c1ccc(C#N)cc1S(C)(=O)=O` (stereo not shown) [Example 47, 4-(4-Cyano-2-(methylsulfonyl)phenyl)-N-methyl-2,5-dioxo-1-(3-(trifluoromethyl)-phenyl)-1,2,5,6,7,8-hexahydroquinazoline-3(4H)-carboxamide] it was under 1 nM; in that of `CS(=O)(=O)c1cc(C#N)ccc1C1C2=C(CCCC2=O)N(c2cccc(C(F)(F)F)c2)C(=O)N1C(=O)NCCO` (stereo not shown) [Example 47.2], under 1 nM; in that of `CS(=O)(=O)c1cc(C#N)ccc1C1C2=C(CCCC2=O)N(c2cccc(C(F)(F)F)c2)C(=O)N1C(=O)NCCCO` (stereo not shown) [Example 47.3], under 1 nM.

With `CS(=O)(=O)CCNC(=O)N1C(=O)N(c2cccc(C(F)(F)F)c2)C2=C(C(=O)CCC2)C1c1ccc(C#N)cc1S(C)(=O)=O` (stereo not shown) [Example 47.4], the IC50 is under 1 nM. Compound `CN1C(=O)N(c2cccc(C(F)F)c2)C2=C(C(=O)CCC2)C1c1ccc(C#N)cc1S(C)(=O)=O` (stereo not shown) [Example 49, 4-(1-(3-(Difluoromethyl)phenyl)-3-methyl-2,5-dioxo-1,2,3,4,5,6,7,8-octahydroquinazolin-4-yl)-3-(methylsulfonyl)benzonitrile] registered an IC50 of 1.3 nM. The compound `CNC(=O)N1C(=O)N(c2cccc(C(F)F)c2)C2=C(C(=O)CCC2)C1c1ccc(C#N)cc1S(C)(=O)=O` (stereo not shown) [Example 50, 4-(4-Cyano-2-(methylsulfonyl)phenyl)-1-(3-(difluoromethyl)phenyl)-N-methyl-2,5-dioxo-1,2,5,6,7,8-hexahydroquinazoline-3(4H)-carboxamide] gave an IC50 of under 1 nM.

Regarding `CCNC(=O)N1C(=O)N(c2cccc(C(F)F)c2)C2=C(C(=O)CCC2)C1c1ccc(C#N)cc1S(C)(=O)=O` (stereo not shown) [Example 51, 4-(4-Cyano-2-(methylsulfonyl)phenyl)-1-(3-(difluoromethyl)phenyl)-N-ethyl-2,5-dioxo-1,2,5,6,7,8-hexahydroquinazoline-3(4H)-carboxamide], the IC50 is under 1 nM. Take `N#Cc1ccc(C2NC(=O)N(c3cccc(C(F)(F)F)c3)C3=C2C(=O)CCC3)c(F)c1` (stereo not shown) [Example 52, 4-(2,5-Dioxo-1-(3-(trifluoromethyl)phenyl)-1,2,3,4,5,6,7,8-octahydroquinazolin-4-yl)-3-fluorobenzonitrile]: the IC50 came to 26.7 nM. The result for `N#Cc1ccc(C2NC(=O)N(c3ccc(F)c(C(F)(F)F)c3)C3=C2C(=O)CCC3)cc1` (stereo not shown) [Example 52.1] reads 19.3 nM; that for `N#Cc1ccc(C2NC(=O)N(c3cc(F)cc(C(F)(F)F)c3)C3=C2C(=O)CCC3)cc1` (stereo not shown) [Example 52.2], 13.8 nM. Compound `COc1cc(C#N)ccc1C1NC(=O)N(c2cccc(C(F)(F)F)c2)C2=C1C(=O)CCC2` (stereo not shown) [Example 53, 4-(2,5-Dioxo-1-(3-(trifluoromethyl)phenyl)-1,2,3,4,5,6,7,8-octahydroquinazolin-4-yl)-3-methoxybenzonitrile] displayed a 50% inhibitory concentration (IC50) of 34 nM. With `CCS(=O)(=O)c1cc(C#N)ccc1C1NC(=O)N(c2cccc(C(F)(F)F)c2)C2=C1C(=O)CCC2` (stereo not shown) [Example 54, 4-(2,5-Dioxo-1-(3-(trifluoromethyl)phenyl)-1,2,3,4,5,6,7,8-octahydroquinazolin-4-yl)-3-(ethylsulfonyl)benzonitrile], the IC50 is 7.5 nM. Regarding `Cc1cc(C#N)ccc1C1NC(=O)N(c2cccc(C(F)(F)F)c2)C2=C1C(=O)CCC2` (stereo not shown) [Example 55, 4-(2,5-Dioxo-1-(3-(trifluoromethyl)phenyl)-1,2,3,4,5,6,7,8-octahydroquinazolin-4-yl)-3-methylbenzonitrile], the IC50 is 18.7 nM. `N#Cc1ccc(C2NC(=O)N(c3cccc(C(F)(F)F)c3)C3=C2C(=O)CCC3)c(Cl)c1` (stereo not shown) [Example 56, 3-Chloro-4-(2,5-dioxo-1-(3-(trifluoromethyl)phenyl)-1,2,3,4,5,6,7,8-octahydroquinazolin-4-yl)benzonitrile]: the IC50 amounted to 34 nM.

Take `CS(=O)(=O)c1cc(C#N)ccc1C1NC(=O)N(c2ccnc(C(F)(F)F)c2)C2=C1C(=O)CCC2` (stereo not shown) [Example 57, 4-(2,5-Dioxo-1-(2-(trifluoromethyl)pyridin-4-yl)-1,2,3,4,5,6,7,8-octahydroquinazolin-4-yl)-3-(methylsulfonyl)benzonitrile]: the concentration for half-maximal inhibition (IC50) stood at 73.2 nM. The result for `CCN1C(=O)N(c2cccc(C(F)(F)F)c2)C2=C(C(=O)CCC2)C1c1ccc(C#N)cc1S(C)(=O)=O` (stereo not shown) [Example 58, 4-(3-Ethyl-2,5-dioxo-1-(3-(trifluoromethyl)phenyl)-1,2,3,4,5,6,7,8-octahydroquinazolin-4-yl)-3-(methylsulfonyl)benzonitrile] reads 1.3 nM; that for `CS(=O)(=O)c1cc(C#N)ccc1C1C2=C(CCCC2=O)N(c2cccc(C(F)(F)F)c2)C(=O)N1CC1CCOCC1` (stereo not shown) [Example 58.5], 1.9 nM; that for `CS(=O)(=O)c1cc(C#N)ccc1C1C2=C(CCCC2=O)N(c2cccc(C(F)(F)F)c2)C(=O)N1CCC1CCOCC1` (stereo not shown) [Example 58.6], under 1 nM.

`CS(=O)(=O)c1cc(C#N)ccc1[C@@H]1C2=C(CCCC2=O)N(c2cccc(C(F)(F)F)c2)C(=O)N1CC#N` [Example 59, (S)-4-(3-(Cyanomethyl)-2,5-dioxo-1-(3-(trifluoromethyl)phenyl)-1,2,3,4,5,6,7,8-octahydroquinazolin-4-yl)-3-(methylsulfonyl)benzonitrile] registered an IC50 of 1.8 nM. As for `CCOC(=O)C(F)N1C(=O)N(c2cccc(C(F)(F)F)c2)C2=C(C(=O)CCC2)C1c1ccc(C#N)cc1` (stereo not shown) [Example 60, Ethyl 2-(4-(4-Cyanophenyl)-2,5-dioxo-1-(3-(trifluoromethyl)phenyl)-1,2,5,6,7,8-hexahydroquinazolin-3(4H)-yl)-2-fluoroacetate], the IC50 was determined as 21.6 nM.

In the case of `CC(C(=O)NCCO)N1C(=O)N(c2cccc(C(F)(F)F)c2)C2=C(C(=O)CCC2)C1c1ccc(C#N)cc1` (stereo not shown) [Example 61, 2-(4-(4-Cyanophenyl)-2,5-dioxo-1-(3-(trifluoromethyl)phenyl)-1,2,5,6,7,8-hexahydroquinazolin-3(4H)-yl)-N-(2-hydroxyethyl)propanamide], the IC50 stood at 6.6 nM.
